Laboratory results: ChEMBL document CHEMBL1201862, “PubChem BioAssay data set” (2004)
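How tested: cells in 96-well plates exposed to compound for 48 hours at five concentrations. The concentration for 50% growth inhibition is given as GI50.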 Calls of active or inactive are those of the source. Cut-off read from the data, not from the text of the source: active = GI50 up to about 1.1 µM and inactive = higher.

What was measured:
Assay in all cases: NCI anticancer screen, dose series, 48 h
LOX IMVI = test system: LOX IMVI
HOP-62 = test system: HOP-62
EKVX = test system: EKVX
SN12C = test system: SN12C
HOP-92 = test system: HOP-92
RXF 393 = test system: RXF 393
MDA-MB-435 = test system: MDA-MB-435
K562 = test system: K562
HCT-15 = test system: HCT-15
SF-268 = test system: SF-268
HT-29 = test system: HT-29
SW-620 = test system: SW-620
UACC-62 = test system: UACC-62
NCI-H23 = test system: NCI-H23
PC-3 = test system: PC-3
MDA-MB-231 = test system: MDA-MB-231
SK-MEL-5 = test system: SK-MEL-5
SF-539 = test system: SF-539
CCRF-CEM = test system: CCRF-CEM
SK-MEL-2 = test system: SK-MEL-2

Row | SMILES | GI50 (LOX IMVI) | GI50 (HOP-62) | GI50 (EKVX) | GI50 (SN12C) | GI50 (HOP-92) | GI50 (RXF 393) | GI50 (MDA-MB-435) | GI50 (K562) | GI50 (HCT-15) [µM] | GI50 (SF-268) | GI50 (HT-29) | GI50 (SW-620) | GI50 (UACC-62) | GI50 (NCI-H23) | GI50 (PC-3) | GI50 (MDA-MB-231) | GI50 (SK-MEL-5) | GI50 (SF-539) | GI50 (CCRF-CEM) | GI50 (SK-MEL-2)
1 | CCOC(=O)c1ccc(Nc2nc3cc(C(F)(F)F)ccc3nc2C(=O)OCC)cc1 | 42.8 µM (inactive) | 22 µM (inactive) | > 100 µM (inactive) | > 100 µM (inactive) | 50 µM (inactive) | > 100 µM (inactive) | > 100 µM (inactive) | 31 µM (inactive) | > 100 | 97.1 µM (inactive) | 84.1 µM (inactive) | > 100 µM (inactive) | 66.5 µM (inactive) | 99.1 µM (inactive) | 47.8 µM (inactive) | 74.5 µM (inactive) | 28.3 µM (inactive) | 50.9 µM (inactive) | > 100 µM (inactive) | –
2 | COc1cccc(C2c3cc4c(cc3OC(C)(N3CCCC3)C2C)OCO4)c1OC (stereo unspecified) | 11.7 µM (inactive) | 14.3 µM (inactive) | 14.9 µM (inactive) | 6.52 µM (inactive) | 14.3 µM (inactive) | 14.8 µM (inactive) | 14.8 µM (inactive) | 6.15 µM (inactive) | 4.83 | 10.9 µM (inactive) | 5.14 µM (inactive) | 6.89 µM (inactive) | 16.9 µM (inactive) | 15 µM (inactive) | 5.11 µM (inactive) | 19.5 µM (inactive) | 13.4 µM (inactive) | – | 4.85 µM (inactive) | 7.74 µM (inactive)
3 | CC(=O)CCCCC(=O)Nc1ccc(CC(NC(=O)OC(C)(C)C)C(=O)NCC(=O)OCc2ccccc2)cc1 (stereo unspecified) | 15.1 µM (inactive) | 13.8 µM (inactive) | 57.3 µM (inactive) | 24.7 µM (inactive) | 29.1 µM (inactive) | 25.2 µM (inactive) | 21.2 µM (inactive) | 17.3 µM (inactive) | 62.8 | 22.4 µM (inactive) | 19.6 µM (inactive) | 16.6 µM (inactive) | > 10 µM (inactive) | 30.8 µM (inactive) | 14.4 µM (inactive) | 22.5 µM (inactive) | 14.7 µM (inactive) | 18.8 µM (inactive) | – | –
4 | Nc1cccc2nnccc12 | – | – | > 100 µM (inactive) | > 100 µM (inactive) | > 100 µM (inactive) | > 100 µM (inactive) | > 100 µM (inactive) | – | > 100 | > 100 µM (inactive) | > 100 µM (inactive) | > 100 µM (inactive) | > 100 µM (inactive) | > 100 µM (inactive) | > 100 µM (inactive) | > 100 µM (inactive) | > 100 µM (inactive) | > 100 µM (inactive) | > 100 µM (inactive) | > 100 µM (inactive)
5 | CN1C(=O)CN(NC(=O)C2=C(O)c3ccc(Br)cc3S(=O)(=O)N2)C1=S | > 100 µM (inactive) | > 100 µM (inactive) | > 100 µM (inactive) | > 100 µM (inactive) | > 100 µM (inactive) | > 100 µM (inactive) | > 100 µM (inactive) | 49.2 µM (inactive) | > 100 | > 100 µM (inactive) | > 100 µM (inactive) | > 100 µM (inactive) | > 100 µM (inactive) | > 100 µM (inactive) | > 100 µM (inactive) | > 100 µM (inactive) | > 100 µM (inactive) | – | 19.2 µM (inactive) | > 100 µM (inactive)
6 | C[n+]1c2ccccc2n2c3ccccc3c(NCCCn3ccnc3)c(C#N)c21 | 1.49 µM (inactive) | 2.03 µM (inactive) | 4.78 µM (inactive) | 1.26 µM (inactive) | 3.15 µM (inactive) | 0.923 µM (active) | 2.23 µM (inactive) | 2.39 µM (inactive) | 5.66 | 1.44 µM (inactive) | 3.31 µM (inactive) | 1.49 µM (inactive) | 2.74 µM (inactive) | 2.27 µM (inactive) | 2.02 µM (inactive) | 2.65 µM (inactive) | 3.09 µM (inactive) | 3.94 µM (inactive) | – | 1.62 µM (inactive)
7 | Cc1ccc2c(/C=C/c3ccc(N(C)C)cc3)ccc(C(C)C)cc1-2 | > 100 µM (inactive) | > 100 µM (inactive) | 94.2 µM (inactive) | > 100 µM (inactive) | 76.4 µM (inactive) | > 100 µM (inactive) | > 100 µM (inactive) | > 100 µM (inactive) | – | > 100 µM (inactive) | 49.1 µM (inactive) | > 100 µM (inactive) | > 100 µM (inactive) | > 100 µM (inactive) | > 100 µM (inactive) | > 100 µM (inactive) | 22 µM (inactive) | – | 37.2 µM (inactive) | > 100 µM (inactive)
8 | C[C@H](C1CC(C)(O)C(C)(O)C(O)O1)[C@H]1CC[C@H]2[C@@H]3[C@@H]4O[C@@H]4[C@@]4(O)CC=CC(=O)[C@]4(C)[C@H]3CC[C@]12C (stereo partly specified) | > 50 µM (inactive) | 27.8 µM (inactive) | > 50 µM (inactive) | > 50 µM (inactive) | 33.6 µM (inactive) | 22.1 µM (inactive) | > 50 µM (inactive) | > 50 µM (inactive) | > 50 | 5.31 µM (inactive) | > 50 µM (inactive) | > 50 µM (inactive) | > 50 µM (inactive) | > 50 µM (inactive) | > 50 µM (inactive) | 44 µM (inactive) | > 50 µM (inactive) | – | > 50 µM (inactive) | > 50 µM (inactive)
9 | Nc1ccn(C2OC(CO)C(O)C2(F)F)c(=O)n1 (stereo unspecified) | 0.157 µM (active) | 0.0867 µM (active) | 0.973 µM (active) | 0.261 µM (active) | 0.462 µM (active) | 0.214 µM (active) | 0.384 µM (active) | 0.325 µM (active) | 0.735 | 0.226 µM (active) | 0.492 µM (active) | 0.759 µM (active) | 0.127 µM (active) | 0.0391 µM (active) | 0.885 µM (active) | 0.828 µM (active) | 0.436 µM (active) | 0.109 µM (active) | – | –
10 | Cn1c(=O)sc2cc(C(=S)N3CCN(c4ccccc4)CC3)ccc21 | 53.5 µM (inactive) | 18.5 µM (inactive) | 44.3 µM (inactive) | 50.6 µM (inactive) | – | 30.5 µM (inactive) | > 100 µM (inactive) | > 100 µM (inactive) | 39.4 | 29.9 µM (inactive) | > 100 µM (inactive) | > 100 µM (inactive) | 31.8 µM (inactive) | 34.1 µM (inactive) | 31.3 µM (inactive) | 27.6 µM (inactive) | > 100 µM (inactive) | 24.4 µM (inactive) | 40.7 µM (inactive) | 56 µM (inactive)
11 | CC(=O)OC1C[C@@H](C)C2(CC(c3ccoc3)OC2=O)C2CCC(O)C3(CO3)C12CO (stereo partly specified) | > 100 µM (inactive) | > 100 µM (inactive) | – | > 100 µM (inactive) | > 100 µM (inactive) | > 100 µM (inactive) | > 100 µM (inactive) | > 100 µM (inactive) | > 100 | > 100 µM (inactive) | > 100 µM (inactive) | > 100 µM (inactive) | > 100 µM (inactive) | > 100 µM (inactive) | > 100 µM (inactive) | > 100 µM (inactive) | > 100 µM (inactive) | > 100 µM (inactive) | > 100 µM (inactive) | > 100 µM (inactive)
12 | Cc1cc(O)nc(/N=C(\N)Nc2ccc(Cl)cc2)n1 | > 100 µM (inactive) | > 100 µM (inactive) | > 100 µM (inactive) | > 100 µM (inactive) | > 100 µM (inactive) | > 100 µM (inactive) | > 100 µM (inactive) | > 100 µM (inactive) | > 100 | > 100 µM (inactive) | > 100 µM (inactive) | > 100 µM (inactive) | > 100 µM (inactive) | > 100 µM (inactive) | > 100 µM (inactive) | > 100 µM (inactive) | > 100 µM (inactive) | – | > 100 µM (inactive) | > 100 µM (inactive)
13 | Oc1c(OCc2nnc(CCCCCCCCc3nnc(COc4ccc5ccccc5c4O)o3)o2)ccc2ccccc12 | – | – | > 100 µM (inactive) | 83.9 µM (inactive) | 43 µM (inactive) | > 100 µM (inactive) | > 100 µM (inactive) | 91.6 µM (inactive) | > 100 | 85.5 µM (inactive) | > 100 µM (inactive) | > 100 µM (inactive) | > 100 µM (inactive) | 61.2 µM (inactive) | > 100 µM (inactive) | 91.8 µM (inactive) | > 100 µM (inactive) | – | – | > 100 µM (inactive)
14 | CCCOc1ccc(/C=C/C2=[N+](CCO)CCO2)cc1 | – | > 100 µM (inactive) | > 100 µM (inactive) | > 100 µM (inactive) | > 100 µM (inactive) | > 100 µM (inactive) | > 100 µM (inactive) | > 100 µM (inactive) | > 100 | > 100 µM (inactive) | > 100 µM (inactive) | > 100 µM (inactive) | > 100 µM (inactive) | > 100 µM (inactive) | > 100 µM (inactive) | > 100 µM (inactive) | > 100 µM (inactive) | > 100 µM (inactive) | > 100 µM (inactive) | > 100 µM (inactive)
15 | CNc1cc(OCc2ccccc2)c(OC)cc1C(=O)N1CCC[C@H]1CO | > 100 µM (inactive) | > 100 µM (inactive) | > 100 µM (inactive) | > 100 µM (inactive) | – | > 100 µM (inactive) | > 100 µM (inactive) | – | > 100 | > 100 µM (inactive) | > 100 µM (inactive) | > 100 µM (inactive) | > 100 µM (inactive) | > 100 µM (inactive) | > 100 µM (inactive) | > 100 µM (inactive) | > 100 µM (inactive) | > 100 µM (inactive) | 81.5 µM (inactive) | > 100 µM (inactive)
